Assays:
Type in all cases: in vivo, pear
Packam's Pears = assay: Firmness of Packam's pears by penetrometer after treatment, non-ambient storage and shelf life; conditions: South Africa, ambient 5 days
Description: (§1) Pears (Conference, William's/Bartlett, or Packam's) were harvested at maturity for long storage. Number of fruits and replicates were selected according to the size of the chamber in which to apply 1-MCP and according to the statistical design. Airtight containers in the range of 1 cubic meter were used for the application of both 1-MCP and ethylene. 1-MCP was released from SmartFresh™ powder that contained 0.14% 1-MCP by weight (obtained from AgroFresh, Inc.). The amount of that SmartFresh™ powder was chosen to yield the target atmospheric concentration of 1-MCP in the chosen container. For example, the 1-MCP released from 1000 mg of that SmartFresh™ powder in 1 cubic meter yielded 1-MCP concentration in the atmosphere of 625 ppb.
(§2) The chosen amount of SmartFresh™ powder was dissolved in water into a tight flask and shaken until all the powder was dissolved. The flask was then put it into the airtight container and opened, to release the 1-MCP. At the same time of the opening of the 1-MCP flask, ethylene was injected with a syringe into the airtight container. Ethylene was taken from a compressed tank at known concentration: either taken directly or released into a flask. In the latter case the concentration was measured by gas-chromatograph to determine the quantity of volume to inject into the airtight container to get the target concentration.
(§3) The exposure to atmosphere containing either 1-MCP alone or 1-MCP and ethylene was done on cold pears (already cooled down to non-ambient storage temperature) within a maximum of 7 days from harvest and lasted 24 hours. At the end of the application, the airtight container was vented for 15 minutes and the fruits were put into RA or CA storage. RA storage was at temperature of −1° C. to 1° C. and at relative humidity of 80% to 98%. CA storage had the same temperature and humidity of RA storage, had oxygen level of 1% to 3%, by volume based on the volume of the atmosphere and had carbon dioxide level of 0.5% to 2%, by volume based on the volume of the atmosphere.
In addition, samples of pears (from the same orchards from which pears treated with 1-MCP alone or 1-MCP and ethylene were harvested) were put into an airtight container for 24 hours at the temperature as the treated pears in order to reproduce the same environmental conditions. Then they were stored in the same rooms or in separated rooms in the same conditions of RA and CA as the treated pears. […]
(§4) Pears denoted with a single number (e.g., “300”) received 1-MCP treatment with that concentration, in ppb, of 1-MCP in the atmosphere (e.g., 300 ppb) and were not exposed to exogenous ethylene. […] Reported quantity is “firmness” (“F”), the penetrometer force in kgf. […]

Conference Pears [1] = assay: Inspection of Conference pears for rot, bruising and internal browning
Description: as §1, §2, §3
After RA storage, pears were exposed to ambient for the number of days shown below and then inspected for rot, bruising, and internal browning (“I.B.”). Results shown are the percentage of pears having the disorder.
Pears from SW France were examined as in Example 7, and the percent disordered fruit was as follows: […]

Conference Pears [2] = assay: Firmness of Conference pears by penetrometer after treatment, non-ambient storage and shelf life; parameters: key to SW France F (firmness) / Italy F (firmness) / Average F (firmness): penetrometer force in kgf (8 mm probe); conditions: for ES A F (firmness): farm ES A; for ES B F (firmness): farm ES B; for IT F (firmness): farm IT; for firmness: Example 9, CA 6 months; for Italy F (firmness) / firmness: Italy; for Orchard #1 F (firmness) / Orchard #2 F (firmness) / Orchard #3 F (firmness): Example 11, Spain, RA 3 months
Description: as §1, §2, §3
In addition, samples of pears (from the same orchards from which pears treated with 1-MCP alone or 1-MCP and ethylene were harvested) were put into an airtight container for 24 hours at the temperature as the treated pears in order to reproduce the same environmental conditions. Then they were stored in the same rooms or in separated rooms in the same conditions of RA and CA as the treated pears. These pears received no exposure to 1-MCP, exogenous ethylene, or any combination thereof, and they are labeled “control” below.
Length of non-ambient storage at present commercial temperature and storage regime was generally of 2-4 months in RA and 6 months in CA, unless otherwise specified, according to normal commercial practice.
All pears received the same progression of non-ambient storage followed by exposure to ambient conditions (“shelf life”).
Pears denoted with a single number (e.g., “300”) received 1-MCP treatment with that concentration, in ppb, of 1-MCP in the atmosphere (e.g., 300 ppb) and were not exposed to exogenous ethylene. Pears denoted with two numbers (e.g. “300+600”) were treated with both that concentration in ppb of 1-MCP and that concentration in ppb of ethylene (e.g., 300 ppb of 1-MCP and 600 ppb of ethylene). The firmness of pears was tested using commercial penetrometers with test probe of 8 mm diameter. Reported quantity is “firmness” (“F”), the penetrometer force in kgf.

Conference Pears [3] = assay: Color rating of Conference pears; conditions: ambient 5-8 days; for Italy color / SW France color: scale of 0 (green) to 5 (yellow)
Description: as §1, §2, §3
Pears were tested for firmness, as described above, and were rated for color on a scale of 0 (green) to 5 (yellow).

William's Pears = assay: Firmness of William's pears by penetrometer after treatment, non-ambient storage and shelf life; conditions: South Africa, RA for 8 weeks, ambient for 5 days
Description: as §1, §2
The exposure to atmosphere containing either 1-MCP alone or 1-MCP and ethylene was done on cold pears (already cooled down to non-ambient storage temperature) within a maximum of 7 days from harvest and lasted 24 hours. At the end of the application, the airtight container was vented for 15 minutes and the fruits were put into RA or CA storage. RA storage was at temperature of −1° C. to 1° C. and at relative humidity of 80% to 98%. […]
as §4

Conference Pears [4] = assay: Examination of Conference pears for scald; conditions: Example 9, CA 6 months, Italy
Description: as §1, §2, §3
Pears from Italy (the same pears whose firmness is reported herein above in Example 5) were examined for scald after exposure to ambient conditions for the number of days shown below.

[5] = Example 7, RA 4 months, SW France, 13 ambient days
[6] = Example 8, CA 6 months, ambient 13 days, SW France
[7] = Example 3, RA 3 months, ambient 5 to 8 days
[8] = Example 4, CA 6 months, ambient 5 to 8 days
[9] = Example 5, RA 3 months, ambient 5-8 days
[10] = Example 6, CA 6 months, ambient 5-8 days

## CC1=CC1 [300(C), 1-MCP]
Packam's Pears; RA for 8 weeks
  8 weeks F (firmness): 6.8 kgf
Packam's Pears; RA for 12 weeks
  12 weeks F (firmness): 5.8 kgf
Conference Pears [1]; Example 7, RA 4 months, Loire, France, 11 ambient days
  percentage of pears having internal browning (I.B.): 0 percentage
Conference Pears [1]; Example 7, RA 4 months, Loire, France, 13 ambient days
  percentage of pears having internal browning (I.B.): 0 percentage
Conference Pears [1]; Example 7, RA 4 months, Loire, France, 15 ambient days
  percentage of pears having internal browning (I.B.): 0 percentage
Conference Pears [1]; [5]
  percentage of pears having bruising: 0 percentage
  percentage of pears having internal browning (I.B.): 0 percentage
  percentage of pears having rot: 0 percentage
Conference Pears [1]; [6]
  percent disordered fruit: I.B.: 34%
  percent disordered fruit: rot: 12%
Conference Pears [2]; [7]
  AV F (firmness), average of the results from the seven farms: 4.6 kgf
  ES A F (firmness): 2.5 kgf
  ES B F (firmness): 3.4 kgf
  IT F (firmness): 4.8 kgf
Conference Pears [2]; Example 3, RA 3 months, ambient 5 to 8 days, farm FR A
  FR A F (firmness): 5.3 kgf
Conference Pears [2]; Example 3, RA 3 months, ambient 5 to 8 days, farm FR B
  FR B F (firmness): 5.1 kgf
Conference Pears [2]; Example 3, RA 3 months, ambient 5 to 8 days, farm NL A
  NL A F (firmness): 5.3 kgf
Conference Pears [2]; Example 3, RA 3 months, ambient 5 to 8 days, farm NL B
  NL B F (firmness): 5.6 kgf
Conference Pears [2]; [8]
  Av F (firmness), average of the results from the six farms: 4.1 kgf
  ES A F (firmness): 4.2 kgf
  ES B F (firmness): 3.3 kgf
  IT F (firmness): 4.7 kgf
Conference Pears [2]; Example 4, CA 6 months, ambient 5 to 8 days, farm FR
  FR F (firmness): 4.7 kgf
Conference Pears [2]; Example 4, CA 6 months, ambient 5 to 8 days, farm NL A
  NL A F (firmness): 4.4 kgf
Conference Pears [2]; Example 4, CA 6 months, ambient 5 to 8 days, farm NL B
  NL B F (firmness): 3.4 kgf
Conference Pears [2]; [9]
  Italy F (firmness): 4.8
  SW France F (firmness): 5.1
Conference Pears [2]; [10]
  Italy F (firmness): 4.7
  SW France F (firmness): 4.7
Conference Pears [2]; Example 6, CA 6 months, ambient 5-8 days, average of SW France and Italy
  Average F (firmness): 4.7
Conference Pears [2]; 0 ambient days
  firmness: 6.5 kgf
Conference Pears [2]; 7 ambient days
  firmness: 4.7 kgf
Conference Pears [2]; Example 10, RA 3 months, ambient 5 days
  Average F (firmness), average of the two orchards: 4.48 kgf
Conference Pears [2]; Example 10, RA 3 months, ambient 5 days, NL A
  NL A F (firmness): 5.59 kgf
Conference Pears [2]; Example 10, RA 3 months, ambient 5 days, NL B
  NL B F (firmness): 3.37 kgf
Conference Pears [2]; 0 days ambient
  Orchard #1 F (firmness): 5.72 kgf
  Orchard #2 F (firmness): 5.92 kgf
  Orchard #3 F (firmness): 5.97 kgf
Conference Pears [2]; 7 days ambient
  Orchard #1 F (firmness): 5.84 kgf
  Orchard #2 F (firmness): 5.53 kgf
  Orchard #3 F (firmness): 5.44 kgf
Conference Pears [2]; 12 days ambient
  Orchard #1 F (firmness): 5.55 kgf
  Orchard #2 F (firmness): 5.68 kgf
  Orchard #3 F (firmness): 5.62 kgf
Conference Pears [3]; Example 5, RA 3 months
  Italy color: 1.9
  SW France color: 2.95
Conference Pears [3]; Example 6, CA 6 months
  Italy color: 2.4
  SW France color: 2.7
Conference Pears [3]; Example 6, CA 6 months, average of SW France and Italy, scale 0 (green) to 5 (yellow)
  Average color: 2.6
William's Pears; farm 1
  farm 1 F (firmness): 6.7 kgf
William's Pears; farm 2
  farm 2 F (firmness): 5.6 kgf
William's Pears; farm 3
  farm 3 F (firmness): 7.2 kgf
Conference Pears [4]; 0 ambient days
  percent with scald: 0%
Conference Pears [4]; 7 ambient days
  percent with scald: 1%
